# Data as given in EPA's ToxRefDB 2.
# Assays:
# mouse [1] = settings: Subchronic oral toxicity in rodents, cd1, Feed, dose end: 6 week, group: systemic, systemic / in life observation / body weight / body weight gain + systemic / organ weight / liver / absolute + systemic / organ weight / …
# rat [2] = settings: Subchronic oral toxicity in rodents, sprague dawley, Feed, dose end: 13 week, group: systemic
# mouse [3] = settings: Subchronic oral toxicity in rodents, cd1, Feed, dose end: 13 week, group: systemic, systemic / clinical chemistry / alkaline phosphatase (alp/alk) / alkaline phosphatase (alp/alk) + systemic / in life observation / clinical …
# dog [4] = settings: Chronic toxicity, beagle, Oral, Feed, dose end: 12 month, group: systemic
# mouse [5] = settings: Carcinogenicity, cd1, Oral, Feed, dose end: 18 month, group: systemic
# dog [6] = settings: Subchronic oral toxicity in nonrodent, beagle, Feed, dose end: 6 week, group: systemic, systemic / in life observation / body weight / body weight gain + systemic / clinical chemistry / alanine aminotransferase (alt/sgpt) / …
# rat [7] = settings: Multigenerational reproductive toxicity study, sprague dawley, Oral, Feed, dose end: 2 generation
# [8] = systemic / clinical chemistry / albumin-globulin ratio / albumin-globulin ratio + systemic / organ weight / liver / relative to body weight
# [9] = systemic / in life observation / body weight / body weight + systemic / in life observation / body weight / body weight gain + systemic / in…
# [10] = systemic / clinical chemistry / alanine aminotransferase (alt/sgpt) / alanine aminotransferase (alt/sgpt) + systemic / clinical chemistry / …
# [11] = systemic / in life observation / clinical signs / moribundity
# [12] = systemic / in life observation / body weight / body weight + systemic / in life observation / body weight / body weight gain
# [13] = group: offspring, systemic / in life observation / body weight / offspring (pup) weight
# [14] = group: offspring, systemic / in life observation / body weight / offspring (pup) weight + systemic / organ weight / liver / relative to body weight
# [15] = group: parental, systemic / in life observation / body weight / body weight
smiles,measurement,setting,value
O=C(O)C1(C(=O)Nc2ccc(Cl)cc2Cl)CC1 [Cyclanilide],LEL,mouse [1],552 mg/kg/day
same,LOAEL,mouse [1],552 mg/kg/day
same,NEL,mouse [1],192 mg/kg/day
same,NOAEL,mouse [1],192 mg/kg/day
same,LEL,rat [2]; [8],32.1 mg/kg/day
same,NEL,rat [2]; [8],< 32.1 mg/kg/day
same,LOAEL,rat [2]; [9],113 mg/kg/day
same,NOAEL,rat [2]; [9],54.6 mg/kg/day
same,LEL,mouse [3],364 mg/kg/day
same,LOAEL,mouse [3],364 mg/kg/day
same,NEL,mouse [3],38 mg/kg/day
same,NOAEL,mouse [3],38 mg/kg/day
same,LOAEL,dog [4]; [10],21.2 mg/kg/day
same,NOAEL,dog [4]; [10],5.3 mg/kg/day
same,LEL,dog [4]; [11],1.3 mg/kg/day
same,NEL,dog [4]; [11],< 1.3 mg/kg/day
same,LEL,mouse [5]; [12],8.41 mg/kg/day
same,LOAEL,mouse [5]; [12],168 mg/kg/day
same,NEL,mouse [5]; [12],< 8.41 mg/kg/day
same,NOAEL,mouse [5]; systemic / in life observation / body weight / body weight + systemic / in life observation / body weight / body weight gain + systemic / …,41.8 mg/kg/day
same,LOAEL,dog [6],> 20 mg/kg/day
same,NOAEL,dog [6],≥ 20 mg/kg/day
same,LEL,rat [7]; [13],20.2 mg/kg/day
same,LOAEL,rat [7]; [13],20.2 mg/kg/day
same,NEL,rat [7]; [14],2 mg/kg/day
same,NOAEL,rat [7]; [14],2 mg/kg/day
same,LEL,rat [7]; [15],2 mg/kg/day
same,LOAEL,rat [7]; [15],2 mg/kg/day
same,NEL,rat [7]; [15],< 2 mg/kg/day
same,NOAEL,rat [7]; [15],< 2 mg/kg/day
